Assay results as given in paper PMC10058894, “Bioactive C21 Steroidal Glycosides from Euphorbia kansui Promoted HepG2 Cell Apoptosis via the Degradation of ATP1A1 and Inhibited Macrophage Polarization under Co-Cultivation” (Molecules, 2023).
Like-named read-outs stand apart in the source and are kept apart here.

Assays:
Type in all cases: cell-based
HepG2 cells = assay: MTT assay, cell viability of HepG2 cells
Procedure: (§1) HepG2 cells (1 × 10^4 cells/well) or RAW264.7 cells ([…]) were incubated in 96T wells for 24 h. Then, HepG2 cells were treated with compounds or Adriamycin for 48 h. In addition, RAW264.7 cells were treated with compounds for 24 h. Then, 0.5% MTT (Sigma, Saint Louis, MO, USA) was added to 20 μL/well for 3.5 h. The supernatant was discarded, and DMSO (150 μL/well) was added to dissolve the purple formazan. Cells were agitated for 15 min at room temperature, and the absorbance at 490 nm was recorded by SpetraMax M2 (Molecular Devices, San Jose, CA, USA).

RAW264.7 cells = assay: MTT assay, cell viability of RAW264.7 cells; conditions: half inhibitory of RAW264.7 cells, 24 h
Procedure: as §1
(§2) RAW264.7 cells (8 × 10^4 cells/well) were incubated in 96T wells with DMEM for 24 h and then treated with compounds and LPS (1 μg/mL) for 24 h; this included the control group and LPS group. Then, the cell supernatant was collected for nitric oxide production assay. Next, 100 uL/well PBS was added to 96T wells, then 0.5% MTT (Sigma, Saint Louis, MO, USA) was added to 20 μL/well for 3.5 h. DMSO (150 μL/well) was added to dissolve the purple formazan. Cells were agitated for 15 min at room temperature, and the absorbance at 490 nm was recorded by SpetraMax M2 (Molecular Devices, San Jose, CA, USA). The NO inhibition rate (%) = (ODLPS group − ODcompound group)/(ODLPS group-ODcontrol group) × 100%. The IC50 value refers to the inhibitory of nitric oxide production of LPS-stimulated RAW264.7 cells. Then, 70 uL of each cell supernatant sample was added into a new 96T plate, and Griess A and Griess B were added separately. Then, the absorbance value at 540 nm was detected and then brought into the standard curve to assay the concentration of NO. The cell survival rate (%) = (ODcompound group − ODblank group)/(ODcontrol group − ODblank group) × 100%. The half concentration of the cell death (CC50) value refers to the concentration of compound 5 when 50% of RAW264.7 cells die. The iNOS inhibitor ([…], L-NMMA) was selected as the positive control. The levels of cytokines (IL-1β, IFN-γ, IL-10, TNF-α, and IL-6) in the cell supernatant were determined using an ELISA kit (Novus Biologicals, Shanghai, China, Lot: 834472, 770118, 772051, 486956, 602865). When the process was conducted according to the manufacturer’s instructions, the absorbance was read at 450 nm/570 nm in a SpectraMax 340PC microplate spectrophotometer (Molecular Devices, San Jose, CA, USA).

[1] = tested on: NO production of LPS-stimulated RAW264.7 cells; assay: Nitric oxide production in LPS-stimulated RAW264.7 cells (Griess); conditions: LPS (1 μg/mL)-stimulated RAW264.7 cells, 24 h, read-out: RAW264.7 IC50 (inhibition of nitric oxide production)
Procedure: as §2

[2] = MTT assay, cell viability of RAW264.7 cells; conditions: mouse, half inhibitory of RAW264.7 cells
Procedure: as §1, §2

ATP1A1 = ATP1A1 (Homo sapiens, UniProt P05023); assay: ATP1A1 level and location in HepG2 cells (western blot, fluorescence staining, lysosomal colocalization); design: we focused on the regulatory effect of 5 on ATP1A1 in HepG2 cells; endogenous in cells; host or cells: HepG2; conditions: HepG2; 5 25 μmol∙L−1, digitonin 10, MK 2206 40, FR 180204 200 nmol∙L−1; western blot
Procedure: HepG2 cells (4 × 10^5 cells/well) were incubated in confocal dishes with DMEM for 24 h and then treated with compounds for 48 h. Then, the cells were treated with 0.1% Triton X-100 for 10 min and washed with PBS five times. Finally, the cells were dyed with anti-ATP1A1 at 4 °C overnight. Nuclear staining with DAPI (1 μg∙mL^−1) was added for 7 min in the dark, and the cells were washed. The stained images were captured under a laser scanning confocal microscope (Nikon A1 AIR MP+, Tokyo, Japan). HepG2 cells (5 × 10^5 cells/well) were incubated in 6-well plates in complete DMEM. Cells were treated with compounds for 24 h. Then, the cells were stained with Annexin V/PI for 30 min at 4 °C in the dark, and apoptosis analysis was carried out by laser scanning confocal microscopy.
Protein samples were prepared using a RIPA lysis buffer. The concentration of the protein was analyzed using a nucleic acid and protein microanalyzer (Molecular Devices, San Jose, CA, USA). SDS–PAGE was performed to separate the proteins, which were then electrotransferred onto a PVDF membrane. The membrane was incubated with antibodies at 4 °C overnight. Next, the membrane was washed and incubated with an HRP-conjugated secondary antibody (Beyotime, BeiJing, China). Finally, signals were detected by the ECL method (Beyotime, BeiJing, China) and analyzed using ImageJ software.

Huh-7 cells = assay: MTT assay, cell viability of Huh-7 cells; conditions: Homo sapiens, Huh-7; MTT; read-out: Huh-7 IC50
Excerpt: 2. The anti-proliferation of compound 5 on Huh-7 cells
We tested another hepatoma cell line (Huh-7) to validate effect of compound 5. L02 (normal hepatocytes), HepG2 and Hub-7 cells were used to discuss the effect of 5. […]
of 5 on Huh-7 cell was (24.49±[…]) μM (Table S1). The morphology and apoptosis of the cells by reversed microscope and flow cytometry, respectively.
Second, the expression and phosphorylation of ATP1A1 were detected by Western blot analysis in L02, HepG2 and Huh-7 cells. Compared with L02 group, the expression of ATP1A1 was higher in HepG2 and Huh-7 cells, but there was no significant difference in the phosphorylation of ATP1A1 (Figure […]
At last, the effect of 5 on the expression and the phosphorylation of ATP1A1 in Huh-7 cells was […]
the phosphorylation of ATP1A1. The result was consistent with that observed in HepG2 cells (Figure […]
Table S1 Cell viability of Huh-7 cell treated by compound 5

Question: For Eupokanu G [Compound 1], which IC50 (HepG2 cells; 48 h) is on record?
Answer: 46.4 ± 3.09 µM

Question: What about the CC50 (RAW264.7 cells) of the same compound?
Answer: > 50 µM

Question: What about the IC50 [1] of the same compound?
Answer: > 50 µM

Question: What does the source list for `CC1(C)CC[C@]2(C(=O)O)CC[C@]3(C)C(=CC[C@@H]4[C@@]5(C)C[C@@H](O)[C@H](O)C(C)(C)[C@@H]5CC[C@]43C)[C@@H]2C1` [Compound 9, Maslinic acid]?
Answer: IC50 (HepG2 cells; Homo sapiens, HepG2, 48 h): > 50 µM; CC50 at 24 h [2]: > 50 µM; IC50 ([1]; Mus musculus): 17.4 ± 2.21 µM

Question: With `Nc1[nH]nc2nnc(-c3c(-c4ccccc4)nn4ccccc34)cc12` [FR 180204, reference compound] as the compound, how does the “expression of ATP1A1 (comparison with inhibitors)” value (ATP1A1) read?
Answer: not similarly observed

Question: What does the source list for `CC(=O)[C@]1(O)CC[C@@]2(O)[C@]1(C)[C@H](O)C[C@@H]1[C@@]3(C)CC[C@H](O)CC3=CC[C@]12O` [Compound 3, Deacylmetaplexigenin]?
Answer: IC50 (HepG2 cells; 48 h): > 50 µM; CC50 (RAW264.7 cells): > 50 µM; IC50 [1]: > 50 µM

Question: Which IC50 (HepG2 cells; 48 h) does the source give for Cynotophylloside B [Compound 2] here?
Answer: 41.1 ± 6.05 µM

Question: What about the CC50 (RAW264.7 cells) of the same compound?
Answer: > 50 µM

Question: What about the IC50 [1] of the same compound?
Answer: 9.1 ± 2.27 µM

Question: Which results are given for `CO[C@H]1C[C@@H](O[C@H]2[C@H](C)O[C@H](O[C@H]3[C@@H](C)O[C@H](O[C@H]4[C@@H](OC)C[C@H](O[C@@H]5CC[C@]6(C)C(=CCC(=O)[C@H]6C[C@H](OC(=O)/C=C/c6ccccc6)[C@]6(C)C(=O)CC[C@]6(O)[C@@H](C)OC(C)=O)C5)O[C@@H]4C)C[C@H]3OC)C[C@H]2OC)O[C@H](C)[C@H]1O` [Compound 7, Wilfoside G]?
Answer: IC50 (HepG2 cells; 48 h): 12.6 ± 2.98 µM; CC50 (RAW264.7 cells): 26.2 ± 2.22 µM; IC50 [1]: 1.77 ± 0.34 µM

Question: Which results are given for “Kidjoranin-3-O-β-D-cymaropyranoside [Compound 6]”?
Answer: IC50 (HepG2 cells; 48 h): 27.3 ± 3.48 µM; CC50 (RAW264.7 cells): 35.2 ± 5.12 µM; IC50 [1]: 3.32 ± 0.43 µM

Question: Which results are given for “Caudatin 3-O-β-D-digitoxopyranoside [Compound 12]”?
Answer: IC50 (HepG2 cells; 48 h): > 50 µM; CC50 (RAW264.7 cells): > 50 µM; IC50 [1]: > 50 µM

Question: For `[H]/N=C(/NC)NCCC[C@H](N)C(=O)O` [L-NMMA, NG-monnomycin-L-arginine, reference compound], which CC50 at 24 h [2] is on record?
Answer: > 50 µM

Question: And the IC50 ([1]; Mus musculus)?
Answer: 21.2 ± 3.26 µM

Question: Which IC50 (HepG2 cells; 48 h) does the source give for “Kidjoranin 3-O-β-digitoxopyranoside [Compound 11]” here?
Answer: > 50 µM

Question: And the CC50 (RAW264.7 cells)?
Answer: > 50 µM

Question: And the IC50 [1]?
Answer: > 50 µM

Question: With `NC1(c2ccc(-c3nc4ccn5c(=O)[nH]nc5c4cc3-c3ccccc3)cc2)CCC1` [MK 2206, reference compound] as the compound, how does the “expression of ATP1A1 (comparison with inhibitors)” value (ATP1A1) read?
Answer: not similarly observed

Question: For `C[C@@H]1CC[C@@]2(OC1)O[C@H]1[C@@H](O)[C@H]3[C@@H]4CC[C@H]5C[C@@H](O[C@@H]6O[C@H](CO)[C@H](O[C@@H]7O[C@H](CO)[C@@H](O)[C@H](O[C@@H]8OC[C@@H](O)[C@H](O)[C@H]8O)[C@H]7O[C@@H]7O[C@H](CO)[C@H](O)[C@H](O[C@@H]8O[C@H](CO)[C@@H](O)[C@H](O)[C@H]8O)[C@H]7O)[C@H](O)[C@H]6O)[C@H](O)C[C@]5(C)[C@H]4CC[C@]3(C)[C@H]1[C@@H]2C` [digitonin, reference compound], which “expression of ATP1A1 (comparison with inhibitors)” value (ATP1A1) is on record?
Answer: not similarly observed

Question: With “Kidjoranin 3-O-α-diginopyranosyl-(1→4)-β-cymaropyranoside [Compound 10]” as the compound, how does the IC50 (HepG2 cells; 48 h) read?
Answer: 22.7 ± 4.02 µM

Question: What about the CC50 (RAW264.7 cells) of the same compound?
Answer: 24.1 ± 3.24 µM

Question: What about the IC50 [1] of the same compound?
Answer: 2.78 ± 0.44 µM

Question: What does the source list for Cynotophylloside J [Compound 8]?
Answer: IC50 (HepG2 cells; 48 h): > 50 µM; CC50 (RAW264.7 cells): > 50 µM; IC50 [1]: 17.4 ± 3.01 µM

Question: With `CC(=O)[C@]1(O)CC[C@@]2(O)[C@]1(C)[C@H](OC(=O)/C=C/c1ccccc1)C[C@@H]1[C@@]3(C)CC[C@H](O)CC3=CC[C@]12O` [Compound 4, Kidjolanin] as the compound, how does the IC50 (HepG2 cells; 48 h) read?
Answer: > 50 µM

Question: What about the CC50 (RAW264.7 cells) of the same compound?
Answer: > 50 µM

Question: And the IC50 [1]?
Answer: 30.7 ± 4.08 µM

Question: Which results are given for `COc1cccc2c1C(=O)c1c(O)c3c(c(O)c1C2=O)C[C@@](O)(C(=O)CO)C[C@@H]3O[C@H]1C[C@H](N)[C@H](O)[C@H](C)O1` [Adr, adriamycin, reference compound]?
Answer: IC50 (Huh-7 cells): 4.49 ± 0.96 µM; IC50 (HepG2 cells; Homo sapiens, HepG2, 48 h): 6.93 ± 1.23 µM; IC50 (HepG2 cells; Homo sapiens, HepG2, fractions A–E, 48 h): 5.98 ± 2.06 µg/mL
